Starred links: 1 amine or outer side, 2 acyl side, 3 side chain; linkers in the order of their positions; H or OH if unused. Non-standard residues stand in square brackets, D forms with d. Residues, ends and D or L forms follow the SMILES beside them. *: point of attachment. X1 = CCC(=O)CCCCC[C@H](N[*:1])C(=O)[*:2]; Asu = N[C@@H](CCCCCC(=O)O)C(=O)O; NHOH = ON*
What was measured:
various HDACs = test system: various HDACs; parameters: method as in PMID 25738536; details: FDA approved HDAC inhibitors; cited from earlier work
HDAC1-MTA1-RBBP4 = HDAC1-MTA1-RBBP4 (Homo sapiens, UniProt Q09028+Q13330+Q13547); assay: Fluorescence-based HDAC inhibition assay (BOC-Lys-AMC substrate); assay type: biochemical; details: 50 nM HDAC1-MTA1-RBBP4, 30 min at 37 °C
Protocol: SPIs 11–14 were assessed in a fluorescence-based inhibition assay to determine potency as HDAC inhibitors (Table 2). […] The lower activity of SPIs 12–13 can be attributed to the lower zinc binding affinity of ketones. In the future these amino acids will be incorporated in various histone tails to generate a library to identify important binding interactions through additional crystal structure studies. The cell permeability of these peptides will also be investigated to determine their usefulness as cellular probes.
HDAC activity was measured by using fluorescent BOC-Lys-AMC substrate in a black 96-well format. 50 nM HDAC1-MTA1-RBBP4 was incubated with inhibitor and 100 µM BOC-Lys-AMC substrate for 30 min at 37 °C in a final volume of 50 µl (50 mM Tris pH 7.5, 150 mM NaCl, 5% Glycerol). The assay was developed by the addition of 50 µl of developer solution (2 µM TSA, 10 mg ml -1 Trypsin, 50 mM Tris pH 7.5, 100 mM NaCl). Fluorescence was measured at 335/460 nm using a Victor X5 plate reader (Perkin Elmer). All measurements were performed in triplicate and data analysed using GraphPad Prism (version 7.0, GraphPad Software, Inc). In the case of titrations IC50 values were calculated by nonlinear curve fitting with a one-site binding (hyperbola) model (Y=Bmax*X/(Kd+X).
Sequence Yield Purity IC50 Retention time Peptide content
(1 picture or pasted object on this page, not shown here)

class I HDAC = details: cited from earlier work
Description: These inhibitors function by coordinating with the HDAC active site zinc through a side chain that has zinc binding properties such as a hydroxamic acid or ethyl ketone.

Sequence of HDAC1-MTA1-RBBP4 (Q13547 whole entry): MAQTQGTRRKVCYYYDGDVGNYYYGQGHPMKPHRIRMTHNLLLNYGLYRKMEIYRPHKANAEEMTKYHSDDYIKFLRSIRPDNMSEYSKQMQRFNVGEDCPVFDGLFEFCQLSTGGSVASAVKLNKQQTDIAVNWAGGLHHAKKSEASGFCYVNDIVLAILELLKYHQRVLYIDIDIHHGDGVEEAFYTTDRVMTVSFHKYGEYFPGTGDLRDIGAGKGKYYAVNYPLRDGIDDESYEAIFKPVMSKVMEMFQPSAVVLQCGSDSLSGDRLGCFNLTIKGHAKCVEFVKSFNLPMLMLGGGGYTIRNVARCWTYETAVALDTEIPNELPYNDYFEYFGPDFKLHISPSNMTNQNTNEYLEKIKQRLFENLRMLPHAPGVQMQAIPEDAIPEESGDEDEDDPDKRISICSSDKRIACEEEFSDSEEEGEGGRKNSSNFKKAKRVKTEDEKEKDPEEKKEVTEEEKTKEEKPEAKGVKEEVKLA
Sequence of HDAC1-MTA1-RBBP4 (Q13330 whole entry partner): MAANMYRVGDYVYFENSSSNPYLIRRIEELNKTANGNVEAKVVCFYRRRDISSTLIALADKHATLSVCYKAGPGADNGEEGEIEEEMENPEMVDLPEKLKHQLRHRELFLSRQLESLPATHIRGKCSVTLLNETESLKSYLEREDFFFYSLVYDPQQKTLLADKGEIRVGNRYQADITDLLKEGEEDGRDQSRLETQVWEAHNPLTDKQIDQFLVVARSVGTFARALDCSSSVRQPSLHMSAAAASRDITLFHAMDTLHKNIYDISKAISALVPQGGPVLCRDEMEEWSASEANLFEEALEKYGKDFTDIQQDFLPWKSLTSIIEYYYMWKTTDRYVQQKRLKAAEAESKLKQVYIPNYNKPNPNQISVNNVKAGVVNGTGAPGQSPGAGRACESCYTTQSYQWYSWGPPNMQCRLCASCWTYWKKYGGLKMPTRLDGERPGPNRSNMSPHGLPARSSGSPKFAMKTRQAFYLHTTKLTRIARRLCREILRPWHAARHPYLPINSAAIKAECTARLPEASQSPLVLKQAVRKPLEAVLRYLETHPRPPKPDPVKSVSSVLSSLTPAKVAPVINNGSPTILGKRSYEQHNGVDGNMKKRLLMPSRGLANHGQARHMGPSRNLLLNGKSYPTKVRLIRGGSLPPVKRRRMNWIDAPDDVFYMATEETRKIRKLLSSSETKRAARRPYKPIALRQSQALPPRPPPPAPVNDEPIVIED
Sequence of HDAC1-MTA1-RBBP4 (Q09028 whole entry partner): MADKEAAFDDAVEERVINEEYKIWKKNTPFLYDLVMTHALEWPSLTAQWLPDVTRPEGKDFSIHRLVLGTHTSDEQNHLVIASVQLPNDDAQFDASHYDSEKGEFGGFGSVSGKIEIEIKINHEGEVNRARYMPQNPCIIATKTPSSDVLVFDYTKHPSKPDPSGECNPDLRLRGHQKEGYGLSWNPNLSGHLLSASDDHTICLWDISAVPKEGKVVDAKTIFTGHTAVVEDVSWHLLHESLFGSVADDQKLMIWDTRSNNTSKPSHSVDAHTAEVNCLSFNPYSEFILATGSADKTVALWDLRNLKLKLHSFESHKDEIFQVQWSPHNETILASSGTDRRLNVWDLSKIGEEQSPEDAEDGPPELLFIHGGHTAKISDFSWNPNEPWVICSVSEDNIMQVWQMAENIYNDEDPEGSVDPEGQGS

| Molecule | HDAC specificity, result in words (various HDACs) | further results |
| --- | --- | --- |
| O=C(/C=C/c1cccc(S(=O)(=O)Nc2ccccc2)c1)NO [Belinostat] | nonspecific across various HDACs | – |
| Cc1[nH]c2ccccc2c1CCNCc1ccc(/C=C/C(=O)NO)cc1 [Panobinostat] | nonspecific across various HDACs | – |
| CC(=O)N[C@@H](CCCCN)C(=O)N[C@@H](C)C(=O)N[C@@H](C)C(=O)N[C@@H](CCCNC(=N)N)C(=O)N[C@@H](CCCCCC(=O)NO)C(=O)N[C@@H](CO)C(=O)N[C@@H](C)C(N)=O [SPI 11] (Ac-KAAR[Asu](NHOH)SA-NH2) | – | HDAC inhibition, result in words (HDAC1-MTA1-RBBP4; BOC-Lys-AMC substrate, pH 7.5, tested concentration not given): comparable to our previously reported SPI based on the H4 peptide sequence |
| CCC(=O)CCCCC[C@H](NC(=O)[C@H](CCCNC(=N)N)NC(=O)[C@H](C)NC(=O)[C@H](C)NC(=O)[C@H](CCCCN)NC(C)=O)C(=O)N[C@@H](CO)C(=O)N[C@@H](C)C(N)=O [SPI 12] (Ac-KAAR[X1]SA-NH2) | – | IC50 (HDAC1-MTA1-RBBP4; 100 M BOC-Lys-AMC substrate (so in the source), 50 mM Tris pH 7.5, 150 mM NaCl, 5% Glycerol, developer TSA/Trypsin, fluorescence 335/460 nm, triplicate, one-site binding fit, unit printed µM in SI): 17 µM |
| O=C(CCCCCCC(=O)Nc1ccccc1)NO [Vorinostat] | nonspecific across various HDACs | – |
| Apicidin A | – | HDAC inhibition, result in words (class I HDAC): class I selective HDAC inhibition in the nanomolar range |
| Romidepsin | nonspecific across various HDACs | – |
